The text below walks through data of patent US10377647B2, “Systems and methods for use of water with switchable ionic strength” (Queen's University at Kingson, priority 2010, dated 2019).

Data set [1] can be described thus: Miscibility of diamines and triamines with water before and after CO2. The format is physicochemical. Particulars: 5:1 w/w water:additive; for miscibility with water After addition of CO2: CO2 90 min; for miscibility with water Before addition of CO2: room temperature. The procedure:
A 5:1 w/w solution of water and the liquid additive (total volume 5 mL) were mixed together in a glass vial at room temperature. Whether the mixture formed one or two liquid phases was visually observed. Then CO2 was bubbled through the mixture via a single narrow gauge steel needle at a flow rate of ˜5 mL min^−1 for 90 min. Whether the mixture formed one or two phases was visually observed.

The format of data set [2] is physicochemical. As for the experimental part:
Specifically, a 1:1:1 (v/v/v) mixture of DBU, water and compound was added to a six dram vial containing a magnetic stirrer and fitted with a rubber septa. […] A second narrow gauge steel needle was inserted to allow venting of the gaseous phase.
When the compound was THF, a single phase miscible liquid mixture was observed.

Data set [3] in a line: Solution conductivity before and after CO2. The format is physicochemical. The procedure:
The solution conductivities of the materials given below were measured. The mass of each material indicated was weighed into a 150 mL beaker charged with a stir bar along with 100 mL of ultra pure water. The solutions were stirred until visibly dissolved and their conductivity measured. […] All solutions were left to stir overnight to test reproducibility. Solution conductivities were re-recorded giving little change in values. CO2 was bubbled at 10 psi through a fine glass frit tube (to make bubble size as small as possible for greater surface area and therefore faster carbonation) with each solution for 30 minutes. In the case of TBAB and functionalized PMMA, significant amounts of bubbling were observed. Solution conductivities were re-recorded.

Data set [4] can be described thus: Reversible protonation monitored by conductivity, fritted glass apparatus. The format is physicochemical. As for the experimental part:
1:1 v/v solutions of the various additives and distilled, deionised water were prepared in six dram glass vials and transferred to a fritted glass apparatus which acted as a reaction vessel. The fritted glass apparatus consisted of a long narrow glass tube leading to a fine glass frit having a diameter of approximately 4 cm. The other end of the glass frit was connected to a cylindrical glass tube which held the solution of the additive during contacting with the trigger gas. This apparatus allowed a multiple source of trigger gas bubbles to contact the solution, compared to the single point source of Example 5.
A trigger gas chosen from CO2, air or nitrogen was bubbled through the solution via the glass frit at a flow rate of 110 mL min^−1 as measured by a J&W Scientific ADM 2000 Intelligent Flowmeter (CA, USA). For each conductivity measurement, the solution was transferred back to a six dram vial, cooled to 298 K and measured in triplicate. Conductivity measurements were performed using a Jenway 470 Conductivity Meter (Bibby Scientific, NJ, US) having a cell constant of 1.02 cm^−1.

A short description of data set [5]: Degree of protonation of methylated spermine by carbonated water, 1H NMR. In kind it is physicochemical. Conditions: 0.1 M in D2O, room temperature, CO2. From the text: (§1) The spectrum was then acquired.
(§2) This process was repeated.

For data set [6] the following is noted: 4 M solution; cited from earlier work.
The nature of data set [7]: Viscosity with and without CO2 (capillary viscometer). Conditions: 104.6 mg in 10 mL H2O. The format is physicochemical. As for the experimental part: In order to study the use of switchable water additives in a method and system for viscosity control, a switchable additive or other molecule of interest was placed in a 50 mL round-bottom flask equipped with a 1 cm magnetic stir-bar and placed on a stir-plate. […] The solution was then transferred in to a Technical Glass Products, Inc. C. F. Opage viscometer with either a 100 or 200 capillary tube. The measurements were taken at room temperature (i.e., from about 15-30° C.) and repeated twice. The solution was transferred back into the round bottom flask and CO2 was introduced to the mixture by bubbling for 30 minutes at a flow rate of 80 ml/min. The carbonated solution was then put into the viscometer and the viscosity was measured three times. The viscosity in centistokes (cS) was calculated from the times the solution took to run through the viscometer.

A short description of data set [8]: Switchable osmotic pressure (Zimm-Meyerson osmometer, hydrostatic pressure). In kind it is physicochemical. As for the experimental part: The switchable osmotic pressure measurements were conducted on a Zimm-Meyerson osmometer using Sterlitech UTC-80LB toray flat sheet membranes. A 0.1% (w/v) switchable polyamine solution in water was made by dissolving 20 mg of the corresponding polyamine in 20 mL deionized H2O. […] The system was closed with a lid and allowed to reach equilibrium overnight. Measurements of the capillary tube and the control capillary were taken. The draw solution was then taken out of the cell and transferred into a graduated cylinder. Both the draw solution and the solution of the outer cell were carbonated by bubbling CO2 with a gas dispersion tube for 1 h. The draw solution was transferred back into the glass cell of the osmometer, the system was closed and held under an atmosphere of CO2. A constant flow of CO2 was maintained using two gauche needles, one of them connected to a CO2 source with a flow rate of 10 ml/min. The heights taken were height differences of the capillary tube connected to the cell and the control capillary tube. Based on these heights the hydrostatic pressure was calculated using the equation: Π=ρhg where Π is the hydrostatic pressure, ρ is the density of the solution, h is the height of the water column and g is the force of gravity. Hydrostatic pressure is taken to be proportional to osmotic pressure of the solution at equilibrium.

Data set [9] can be described thus: Degree of protonation by CO2 in D2O by 1H NMR. In kind it is physicochemical. Conditions: 0.1 M in D2O.
Excerpt: as §1, §2

A short description of data set [10]: Zeta potential of suspended clay particles. In kind it is physicochemical. The procedure: (§3) Clay fines were weighed and placed into individual vials (0.025 g, Ward's Natural Science Establishment). Kaolinite and montmorillonite were used as received, but illite clay was ground into a powder using a mortar and pestle. Solutions containing additives were made with deionized water (18.2 MΩ/cm, Millipore) and 10 mL was added to the clay fines. A suspension was created using a vortex mixer and subsequently dispensed into a folded capillary cell. The zeta potential was measured using a Malvern Zetasizer instrument. The errors reported on the zeta potential values were the standard deviations of the zeta potential peaks measured.
(§4) Unless specified, all carbon dioxide treatments were conducted with the aqueous solutions prior to addition to the clay fines. For applicable measurements, ultra pure carbon dioxide (Supercritical CO2 Chromatographic Grade, Paxair) was bubbled through the solutions using a syringe.

A short description of data set [11]: Zeta potential of suspended clay particles. In kind it is physicochemical. Particulars: for Zeta Potential: kaolinite clay. As for the experimental part:
as §3, §4
Another experiment was performed in which CO2 was bubbled through a 1 mM aqueous solution of TMDAB that already contained clay fines (a method referred to as “switching in situ”).

Data set [12] is described as follows: pH of 5% (w/v) kaolinite suspensions. In kind it is physicochemical. As for the experimental part:
The pH of the following 5% (w/v) kaolinite suspensions were measured: CO2 blank and 1 mM TMDAB and 10 mM TMDAB after CO2-treatment. To investigate the effect of pH on suspension settling behaviour, 5% (w/v) kaolinite suspensions were prepared, and the pH of each suspension was adjusted with HCl and NaOH to match the pH of corresponding treatment conditions. To investigate the effect of ionic strength on suspension settling behaviour, pH was again corrected to match the pH of corresponding treatment conditions, and ionic strength was adjusted with NaCl or ammonium sulphate, assuming all basic sites on the diamine were protonated.

Where [13] appears, read: 1 mM TMDAB + 1 h CO2 + […] N2 at 70° C.

The structures appear in SMILES notation. Where two headings read alike, the source gives them in different places.

For the molecule `CN(C)Cc1cc(CN(C)C)cc(CN(C)C)c1` [1,3,5-C6H3(CH2NMe2)3, N,N,N′,N′,N″,N″-1,3,5-benzenetrimethanamine], in data set [1], the “miscibility with water After addition of CO2” value was “miscible” and the “miscibility with water Before addition of CO2” value is “miscible”.

Consider `CN(C)CC1CC(CN(C)C)CC(CN(C)C)C1` (stereo not shown) [CHTDMA, 1,1′,1″-(cyclohexane-1,3,5-triyl)tris(N,N-dimethylmethanamine)], for which, in data set [1], the “miscibility with water After addition of CO2” value is reported as “miscible” and the “miscibility with water Before addition of CO2” value is “immiscible”.

Regarding `C1CCC2=NCCCN2CC1` [DBU, 1,8-diazabicyclo-[5.4.0]-undec-7-ene], the “solubility of non-ionic amidine form in water” value in data set [2] is given as “soluble in water”.

As for `CN(C)CCCN` [H2N(CH2)3NMe2, 3-dimethylamino-1-propylamine], the “C after 30 mins CO2” value in data set [3] (CO2 bubbled at 10 psi, 30 minutes) is recorded as 3360 μS/cm. Moreover, the “Initial C” value in data set [3] (mass as listed in 100 mL ultra pure water) is on record as 398 μS/cm.

`CN(C)CCN(C)CCN(C)CCN(C)C` [HMTETA, 1,1,4,7,10,10-hexamethyl triethylenetetramine]: the “conductivity of ionic form solution after N2 flushing” value in data set [4] (1:1 v/v H2O:amine, N2 at 80° C., after 20 minutes) is recorded as “close to zero”.

`CN(C)CCCN(C)CCCCN(C)CCCN(C)C` [MeSpe, N^1,N^1′-(butane-1,4-diyl)bis(N^1,N^3,N^3-trimethylpropane-1,3-diamine)]: the degree of protonation in data set [5] turned out to be 93%.

`[Cl-].[Cl-].[Mg+2]` [MgCl2]: the osmotic pressure in data set [6] is on record as 800 atm.

On to `CN(C)C1CCCCC1` [N,N-dimethylcyclohexylamine], for which the “viscosity without CO2” value in data set [7] was 1.0 cS. In addition, the “viscosity with CO2” value in data set [7] (CO2 30 minutes) came to 1.0 cS. Further, the “hydrostatic pressure without CO2” value in data set [8] (control experiments, height before CO2 treatment) came to 580 Pa. The “hydrostatic pressure with CO2” value in [8] (nominal 0.1% (w/v), carbonated 1 h, CO2 atmosphere) was 1550 Pa. In addition, the pressure increase in data set [8] (ratio with CO2 / without CO2) turned out to be 2.7.

Regarding `CCCN(CC)CCCCN(CC)CCC` [N,N′-diethyl-N,N′-dipropyl-1,4-diaminobutane], in data set [1], the “miscibility with water After addition of CO2” value is “miscible” and the “miscibility with water Before addition of CO2” value is on record as “immiscible”.

On to `CCCN(CCC)CCCCN(CCC)CCC` [Pr2NCH2CH2CH2CH2NPr2, N,N,N′,N′-tetrapropyl-1,4-diaminobutane], for which, in [1], the “miscibility with water After addition of CO2” value is reported as “immiscible” and the “miscibility with water Before addition of CO2” value is given as “immiscible”.

In the case of `CCN(CC)CCCCN(CC)CC` [TEDAB, N,N,N′,N′-tetraethyl-1,4-diaminobutane], in data set [1], the “miscibility with water After addition of CO2” value is on record as “miscible” and the “miscibility with water Before addition of CO2” value was “immiscible”.

Consider `OCCN(CCO)CCN(CCO)CCO` [THEED, N,N,N′,N′-tetrakis(2-hydroxyethyl) ethylenediamine], for which, in data set [9] (2 hours N2 bubbling at 75° C.), the “% deprotonated” value came out at 98%. For the same molecule, the “% protonation” value in [9] (by 10 minutes CO2) is 49%.

For `CN(C)CCCCN(C)C` [TMDAB, N,N,N′,N′-tetramethyl-1,4-diaminobutane], in data set [4] (1:1 v/v H2O:amine switched with CO2, 90 minutes at 80° C., N2 through glass frit), the reduction of conductivity entry is reported as “approximately 95%”. In addition, the “Zeta Potential” value in data set [10] (1 mM additive + […] CO2, illite clay) was −4.69 ± 4.23 mV; in [10] (1 mM additive + […] CO2, montmorillonite clay) it was −3.20 ± 4.61 mV; in data set [10] (1 mM additive, illite clay) it was −39.5 ± 6.32 mV; in data set [10] (1 mM additive, montmorillonite clay), −40.2 ± 6.87 mV; in [10] (10 mM additive + […] CO2, illite clay), −3.12 ± 7.16 mV; in data set [10] (10 mM additive + […] CO2, montmorillonite clay) it was 9.07 ± 4.18 mV. Moreover, the “Zeta Potential” value in data set [10] (10 mM additive, illite clay) was −48.2 ± 7.44 mV; in data set [10] (10 mM additive, montmorillonite clay), −23.6 ± 5.68 mV; in [10] (0.8 molal additive + 1 h CO2, illite clay), −4.56 mV; in data set [10] (0.8 molal additive + 1 h CO2, montmorillonite clay) it was −5.52 mV; in data set [10] (0.8 molal additive, illite clay), −26.0 ± 3.92 mV; in data set [10] (0.8 molal additive, montmorillonite clay) it was −25.8 ± 4.14 mV. Besides, the “Zeta Potential” value in data set [11] (1 mM additive + […] CO2) is reported as −5.03 ± 4.46 mV; in data set [11] (1 mM additive), −39.6 ± 6.68 mV; in data set [11] (10 mM additive + […] CO2), −3.35 ± 8.49 mV; in data set [11] (10 mM additive), −50.7 ± 13.1 mV; in data set [11] (0.8 molal additive + 1 h CO2), 2.29 mV; in [11] (0.8 molal additive), −17.4 ± 3.92 mV. Further, the “Zeta Potential, Switching externally” value in data set [11] (1 mM TMDAB) was −39.6 ± 6.68 mV; in [11] (1 mM TMDAB + 1 h CO2), −5.03 ± 4.46 mV; in [11] (setting [13]), −25.0 ± 5.84 mV. The results for the “Zeta Potential, Switching in situ” value in data set [11] (1 mM TMDAB), in data set [11] (1 mM TMDAB + 1 h CO2) and in [11] (setting [13]) were −38.9 ± 8.69 mV, −0.31 ± 4.15 mV and −32.5 ± 6.38 mV, respectively. In addition, the pH in data set [12] (kaolinite Sample 2, 1 mM TMDAB) worked out at 7.13; in data set [12] (kaolinite Sample 2, 1 mM TMDAB + CO2), 4.75; in [12] (kaolinite Sample 2, 10 mM TMDAB), 10.41; in [12] (kaolinite Sample 2, 10 mM TMDAB + CO2), 5.95.

Consider `CCCC[N+](CCCC)(CCCC)CCCC.[Br-]` [[^nBu4N]Br, Tetra-n-butylammonium bromide], for which, in data set [3], the “C after 30 mins CO2” value was found to be 1781 μS/cm and the “Initial C” value was 1892 μS/cm.

With `OC[C@H]1O[C@@](CO)(O[C@H]2O[C@H](CO)[C@@H](O)[C@H](O)[C@H]2O)[C@@H](O)[C@@H]1O` [sucrose], the osmotic pressure result in data set [6] is reported as “about 130 atm”.
